This experiment relates to Mycobacterium tuberculosis. As to the kind of experiment: Antimycobacterial activity against multidrug resistant Mycobacterium tuberculosis G122 incubated for 5 days by alamar blue based colorimetric assay. It is filed as functional. As to conditions: G122, 120 h.

Values after ≈ are worked out from the molar mass of the structure shown.

`COC(=O)[C@@H]1COC(/C=C/c2ccc(F)cc2)=N1` displayed a minimum inhibitory concentration (MIC) of 100 µM (≈ 25 µg/mL).

Turning to `COC(=O)c1coc(/C=C/c2ccc(C)cc2)n1`, it took 25.7 µM (≈ 6.25 µg/mL) to inhibit growth (MIC).

`COC(=O)[C@H](CO)NC(=O)/C=C/c1ccc(C)cc1` showed an MIC above 380 µM.

`COC(=O)c1coc(/C=C/c2ccc(F)cc2)n1` registered a minimal inhibitory concentration (MIC) of 50.5 µM (≈ 12.5 µg/mL).

Turning to `COC(=O)[C@H](CO)NC(=O)/C=C/c1ccc(F)cc1`, the MIC is above 374 µM.

The compound `COC(=O)[C@@H]1COC(/C=C/c2ccc(OC)cc2)=N1` gave an MIC of 47.8 µM (≈ 12.5 µg/mL).

`COC(=O)[C@H](COC(=O)/C=C/c1ccccc1)NC(=O)/C=C/c1ccccc1`: the MIC is above 264 µM.

Regarding `COC(=O)[C@H](CO)NC(=O)/C=C/c1ccccc1`, the MIC was above 401 µM.

`COC(=O)[C@@H]1COC(/C=C/c2ccc(C)cc2)=N1` yielded an MIC of 50.9 µM (≈ 12.5 µg/mL).

`O=C(/C=C/c1ccc(F)cc1)O/C(=N/C1CCCCC1)NC1CCCCC1`: the minimum inhibitory concentration (MIC) was above 268 µM.

`COC(=O)[C@H](CO)NC(=O)/C=C/c1ccc(OC)cc1`: the MIC was above 358 µM.

In turn, `COC(=O)[C@@H]1COC(/C=C/c2ccccc2)=N1` showed an MIC of 54.1 µM (≈ 12.5 µg/mL).

`O=C(/C=C/c1ccccc1)O/C(=N/C1CCCCC1)NC1CCCCC1` came in with an MIC above 282 µM.

On to `Cc1ccc(/C=C/C(=O)O/C(=N/C2CCCCC2)NC2CCCCC2)cc1`, for which the minimal inhibitory concentration (MIC) was above 271 µM.

`COC(=O)[C@H](COC(=O)/C=C/c1ccc(F)cc1)NC(=O)/C=C/c1ccc(F)cc1` showed a minimal inhibitory concentration (MIC) above 241 µM.

In turn, `COC(=O)[C@H](COC(=O)/C=C/c1ccc(OC)cc1)NC(=O)/C=C/c1ccc(OC)cc1` came in with an MIC above 228 µM.

With `COC(=O)c1coc(/C=C/c2ccc(OC)cc2)n1`, the minimal inhibitory concentration (MIC) was found to be 48.2 µM (≈ 12.5 µg/mL).

`COC(=O)[C@H](COC(=O)/C=C/c1ccc(C)cc1)NC(=O)/C=C/c1ccc(C)cc1`: the minimal inhibitory concentration (MIC) was above 245 µM.

With `COC(=O)c1coc(/C=C/c2ccccc2)n1`, the minimum inhibitory concentration (MIC) was found to be 54.5 µM (≈ 12.5 µg/mL).

`CC[C@@H](CO)NCCN[C@@H](CC)CO` [ETHAMBUTOL]: the minimal inhibitory concentration (MIC) was above 30.5 µM.

In turn, `C[C@H]1COc2c(N3CCN(C)CC3)c(F)cc3c(=O)c(C(=O)O)cn1c23` [LEVOFLOXACIN] had an MIC of 0.54 µM (≈ 0.195 µg/mL).

`CO[C@H]1/C=C/O[C@@]2(C)Oc3c(C)c(O)c4c(O)c(c(/C=N/N5CCN(C)CC5)c(O)c4c3C2=O)NC(=O)/C(C)=C\C=C\[C@H](C)[C@H](O)[C@@H](C)[C@@H](O)[C@@H](C)[C@H](OC(C)=O)[C@@H]1C` [RIFAMPIN] yielded an MIC of 0.23 µM (≈ 0.189 µg/mL).

(Values after ChEMBL document CHEMBL4627328, “Synthesis and in vitro evaluation of antimycobacterial and cytotoxic activity of new α,β-unsaturated amide, oxazoline and oxazole derivatives from l-serine” (Bioorg Med Chem Lett, 2020).)
